Reference: ChEMBL document CHEMBL2040778, “The binding of C5-alkynyl and alkylfurano[2,3-d]pyrimidine glucopyranonucleosides to glycogen phosphorylase b: synthesis, biochemical and biological assessment” (Eur J Med Chem, 2012)

Columns and labels:
[1] = molecular target: Glycogen phosphorylase, muscle form, Oryctolagus cuniculus (UniProt P00489); assay: Inhibition of glycogen phosphorylase b
[2] = molecular target: T1, Glycogen phosphorylase, muscle form (Oryctolagus cuniculus, UniProt P00489); assay: Competitive inhibition of rabbit skeletal muscle glycogen phosphorylase b using Glc-1-P as substrate; parameters: species or system Muscle tissue
T1 sequence (P00489 whole entry): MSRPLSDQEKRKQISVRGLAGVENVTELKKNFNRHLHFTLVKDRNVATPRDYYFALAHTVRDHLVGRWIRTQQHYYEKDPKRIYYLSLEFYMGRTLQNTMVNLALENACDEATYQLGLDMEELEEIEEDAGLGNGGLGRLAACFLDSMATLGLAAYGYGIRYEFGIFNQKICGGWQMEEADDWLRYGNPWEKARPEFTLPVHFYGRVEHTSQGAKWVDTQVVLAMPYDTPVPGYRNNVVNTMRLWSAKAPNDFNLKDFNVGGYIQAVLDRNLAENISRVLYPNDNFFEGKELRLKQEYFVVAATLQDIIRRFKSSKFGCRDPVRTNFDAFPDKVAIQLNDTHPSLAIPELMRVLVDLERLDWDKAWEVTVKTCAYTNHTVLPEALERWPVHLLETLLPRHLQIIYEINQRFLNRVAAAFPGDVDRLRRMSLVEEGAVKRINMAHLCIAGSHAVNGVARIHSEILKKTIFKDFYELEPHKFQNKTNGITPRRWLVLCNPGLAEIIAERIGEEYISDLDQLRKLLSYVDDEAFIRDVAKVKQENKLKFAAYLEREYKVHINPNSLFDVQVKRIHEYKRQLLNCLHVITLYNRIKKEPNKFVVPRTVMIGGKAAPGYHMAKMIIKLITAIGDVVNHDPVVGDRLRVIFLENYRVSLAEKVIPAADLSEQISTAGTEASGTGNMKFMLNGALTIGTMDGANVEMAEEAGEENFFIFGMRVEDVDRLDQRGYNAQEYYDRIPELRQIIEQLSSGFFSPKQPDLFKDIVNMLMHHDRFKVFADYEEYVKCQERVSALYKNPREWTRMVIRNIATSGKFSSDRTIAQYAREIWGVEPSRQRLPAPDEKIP

[3] = tested on: HepG2; assay: Cytotoxicity against human HepG2 cells assessed as decrease in viability up to 500 uM after 6 hrs by MTT assay relative to control; type: cell-based; conditions: hepg2, 6 h
[4] = tested on: HepG2; assay: Cytotoxicity against human HepG2 cells up to 150 uM after 6 hrs by MTT assay; type: cell-based; conditions: hepg2, 6 h
[5] = molecular target: T2, Glycogen phosphorylase, muscle form (Homo sapiens, UniProt P11217); assay: Inhibition of glycogen phosphorylase b in human HepG2 cells after 3 hrs; type: cell-based
T2 sequence (P11217 whole entry): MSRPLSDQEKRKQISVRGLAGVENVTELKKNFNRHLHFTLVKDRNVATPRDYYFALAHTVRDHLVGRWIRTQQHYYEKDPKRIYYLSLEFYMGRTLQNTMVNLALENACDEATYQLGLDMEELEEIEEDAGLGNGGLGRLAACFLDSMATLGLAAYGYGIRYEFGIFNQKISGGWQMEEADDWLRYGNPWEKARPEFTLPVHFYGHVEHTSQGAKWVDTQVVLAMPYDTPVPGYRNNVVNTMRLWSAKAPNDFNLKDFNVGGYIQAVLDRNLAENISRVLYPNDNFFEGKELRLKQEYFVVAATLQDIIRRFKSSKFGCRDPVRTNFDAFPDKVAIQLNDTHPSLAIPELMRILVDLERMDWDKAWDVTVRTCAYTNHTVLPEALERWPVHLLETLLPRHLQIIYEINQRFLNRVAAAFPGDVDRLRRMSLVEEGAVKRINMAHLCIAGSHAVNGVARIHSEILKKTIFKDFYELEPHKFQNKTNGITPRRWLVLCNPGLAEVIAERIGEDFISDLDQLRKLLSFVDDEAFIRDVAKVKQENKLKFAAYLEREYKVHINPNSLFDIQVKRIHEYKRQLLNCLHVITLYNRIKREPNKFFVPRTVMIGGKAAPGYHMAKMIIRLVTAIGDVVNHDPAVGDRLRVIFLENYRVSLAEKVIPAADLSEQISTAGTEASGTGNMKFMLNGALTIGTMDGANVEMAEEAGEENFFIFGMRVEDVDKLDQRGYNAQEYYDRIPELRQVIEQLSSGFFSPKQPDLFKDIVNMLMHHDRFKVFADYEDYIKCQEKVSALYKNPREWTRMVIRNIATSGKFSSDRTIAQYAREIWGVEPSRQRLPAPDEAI

| Structure (SMILES) | Ki [1] [µM] | Ki [2] [µM] | further results |
| --- | --- | --- | --- |
| O=c1[nH]c(=O)n([C@@H]2O[C@H](CO)[C@@H](O)[C@H](O)[C@H]2O)cc1I | 1.94 |  |  |
| CCCC#Cc1cn([C@@H]2O[C@H](CO)[C@@H](O)[C@H](O)[C@H]2O)c(=O)[nH]c1=O |  | 303 |  |
| CCCCCC#Cc1cn([C@@H]2O[C@H](CO)[C@@H](O)[C@H](O)[C@H]2O)c(=O)[nH]c1=O |  |  | IC50 [2]: 6100 µM |
| C#Cc1cn([C@@H]2O[C@H](CO)[C@@H](O)[C@H](O)[C@H]2O)c(=O)[nH]c1=O |  | 4.7 | Activity [3]: 10%; Activity [4]: Non-toxic; IC50 [5]: 291 µM |
| CCCc1cc2cn([C@@H]3O[C@H](CO)[C@@H](O)[C@H](O)[C@H]3O)c(=O)nc2o1 |  | 32.4 |  |
| CCCCCc1cc2cn([C@@H]3O[C@H](CO)[C@@H](O)[C@H](O)[C@H]3O)c(=O)nc2o1 |  | 33.4 |  |
| O=c1[nH]c(=O)n([C@@H]2O[C@H](CO)[C@@H](O)[C@H](O)[C@H]2O)cc1Cl | 1.02 | 1.02 |  |
| O=c1[nH]c(=O)n([C@@H]2O[C@H](CO)[C@@H](O)[C@H](O)[C@H]2O)cc1Br | 3.27 |  |  |
